Experimental data as given in patent US20260265247A1, “MULTI-KINASE INHIBITORS, COMPOSITIONS THEREOF, AND METHODS OF USING THE SAME” (BIOFRONT LTD, priority 2022, published 2026).
pIC50: −log10 of the molar value.

Columns and labels:
Assay type in all cases: biochemical
[1] = target: T1, Aurora A (Homo sapiens, UniProt O14965); assay: Aurora A Enzymatic Assay; settings: enzyme inhibition; peptide 21 3 μM, ATP 14.58 μM
T1 construct: purchased Carna 05-101
T1 sequence (O14965 1-403): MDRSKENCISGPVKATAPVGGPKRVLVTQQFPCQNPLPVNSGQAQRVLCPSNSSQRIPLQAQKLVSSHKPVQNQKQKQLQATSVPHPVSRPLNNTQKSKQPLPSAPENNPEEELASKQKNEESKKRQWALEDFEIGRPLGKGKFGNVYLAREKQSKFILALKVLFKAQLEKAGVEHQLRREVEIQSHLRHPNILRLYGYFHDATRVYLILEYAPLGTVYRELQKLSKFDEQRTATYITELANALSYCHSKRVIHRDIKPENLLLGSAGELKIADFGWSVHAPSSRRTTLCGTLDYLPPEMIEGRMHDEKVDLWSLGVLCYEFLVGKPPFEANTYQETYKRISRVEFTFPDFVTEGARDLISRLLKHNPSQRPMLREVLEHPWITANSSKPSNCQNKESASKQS
Description: (§1) The compound was dissolved in 100% DMSO at the concentration of 10 mM. The Aurora A protein was purchased from Carna (05-101). 10 μL per well of 2.5× Aurora A protein was added to assay plate containing the test compound, centrifuged at 1000 rpm for 1 minute, and then incubated at 25° C. for 10 minutes. Peptide 21 was purchased from GL Biochem (116370) and ATP was purchased from Promega (V9102). The two were added 15 μL per well mixture of 1.67× peptide 21 (final conc. is 3 μM) and ATP (final conc. is 14.58 μM), centrifuged at 1000 rpm for 1 minute, then incubated at 25° C. for 40 minutes. Then added 30 μL of stop buffer (100 mM HEPES pH7.5, 0.015% Brij-35, 0.2% Coating Reagent 3, 50 mM EDTA) to the assay plate and centrifuged at 1000 rpm for 1 minute. the product was determined. Based on the results, the IC50 value of the compound was calculated.

[2] = target: T2, HPK1 (Homo sapiens, UniProt Q92918); assay: HPK1 Enzymatic Assay (ADP-Glo); settings: enzyme inhibition; MBP substrate, ATP 20 μM mixture
T2 construct: purchased Signal Chem M23-11G-10
T2 sequence (Q92918 1-346 limits assumed): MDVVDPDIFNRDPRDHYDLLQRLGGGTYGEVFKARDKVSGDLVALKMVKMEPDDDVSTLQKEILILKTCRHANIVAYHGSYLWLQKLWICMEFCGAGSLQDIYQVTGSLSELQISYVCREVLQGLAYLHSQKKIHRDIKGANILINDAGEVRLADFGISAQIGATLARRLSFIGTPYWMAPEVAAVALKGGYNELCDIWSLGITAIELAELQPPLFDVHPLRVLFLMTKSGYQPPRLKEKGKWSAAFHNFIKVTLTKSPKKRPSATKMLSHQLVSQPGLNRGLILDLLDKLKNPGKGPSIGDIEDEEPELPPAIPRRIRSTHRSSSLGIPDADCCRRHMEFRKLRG
Description: The compound was dissolved in 100% DMSO at the concentration of 10 mM. The HPK1 protein was purchased from Signal Chem (M23-11G-10). 2.5 μL per well of 2× HPK1 protein was added to assay plate containing the test compound, centrifuged at 1500 rpm for 1 minute, and then incubated at 25° C. for 60 minutes. MBP protein was purchased from Signal Chem (M42-51N) and ATP was purchased from Promega (V9102). The two were added 2.5 μL per well mixture of 2× MBP (0.2 ug/ul) and ATP (20 μM), centrifuged at 1500 rpm for 1 minute, then incubated at 25° C. for 60 minutes. Then added 5 μL of ADP-Glo from Promega (V9102) to the assay plate and depleted the unconsumed ATP for 60 minutes. Then centrifuged at 1500 rpm for 1 minute and incubated at 25° C. for 60 minutes. Finally, 10 μL of the kinase assay reagent from Promega (V9102) was added to the assay plate to convert ADP to ATP, centrifuged at 1500 rpm for 1 minute, incubate at 25° C. for 40 minutes. After 40 minutes incubation, the fluorescence was determined. Based on the results, the IC50 value of the compound was calculated.

[3] = target: T3, FLT3-ITD (Homo sapiens, UniProt P36888); assay: FLT3-ITD Enzymatic Assay; settings: enzyme inhibition; peptide 2 3 μM, ATP 97.2 μM
T3 sequence (P36888 1-993): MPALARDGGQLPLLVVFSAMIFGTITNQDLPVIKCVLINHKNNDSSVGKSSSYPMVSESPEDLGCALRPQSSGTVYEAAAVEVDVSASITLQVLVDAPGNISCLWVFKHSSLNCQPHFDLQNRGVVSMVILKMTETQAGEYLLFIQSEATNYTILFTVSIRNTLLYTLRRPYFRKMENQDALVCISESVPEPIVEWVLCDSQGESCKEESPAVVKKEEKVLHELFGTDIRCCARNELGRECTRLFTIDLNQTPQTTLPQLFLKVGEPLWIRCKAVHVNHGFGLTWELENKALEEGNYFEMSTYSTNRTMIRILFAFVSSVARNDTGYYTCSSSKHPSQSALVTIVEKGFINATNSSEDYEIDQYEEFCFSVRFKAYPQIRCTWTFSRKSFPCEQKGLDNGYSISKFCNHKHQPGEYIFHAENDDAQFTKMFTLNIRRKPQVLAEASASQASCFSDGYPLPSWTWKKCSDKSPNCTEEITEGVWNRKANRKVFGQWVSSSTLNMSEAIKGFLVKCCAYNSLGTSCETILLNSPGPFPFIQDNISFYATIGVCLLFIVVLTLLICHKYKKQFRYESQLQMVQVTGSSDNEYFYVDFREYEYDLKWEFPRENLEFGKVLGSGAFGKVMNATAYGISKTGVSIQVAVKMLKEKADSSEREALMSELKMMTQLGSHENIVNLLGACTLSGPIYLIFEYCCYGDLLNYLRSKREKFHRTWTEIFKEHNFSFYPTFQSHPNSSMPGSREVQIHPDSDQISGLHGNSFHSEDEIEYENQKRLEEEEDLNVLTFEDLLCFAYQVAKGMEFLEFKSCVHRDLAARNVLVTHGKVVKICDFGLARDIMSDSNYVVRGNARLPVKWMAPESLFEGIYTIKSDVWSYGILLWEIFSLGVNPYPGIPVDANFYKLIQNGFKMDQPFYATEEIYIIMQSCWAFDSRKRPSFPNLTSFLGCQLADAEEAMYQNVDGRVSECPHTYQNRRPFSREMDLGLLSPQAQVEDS
Description: as §1, with “FLT3-ITD” for “Aurora A”, “Invitrogen (PV6191).” for “Carna (05-101).”, “2” for “21”, “(112394)” for “(116370)”, “97.2” for “14.58”

Row | SMILES | pIC50 [1] | pIC50 [2] | pIC50 [3]
1 | CCc1c[nH]c2ncc(-c3cccc(-n4cn[nH]c4=O)c3)c(Cl)c12 [Compound 1, 4-(3-(4-chloro-3-ethyl-1H-pyrrolo[2,3-b]pyridin-5-yl)phenyl)-2,4-dihydro-3H-1,2,4-triazol-3-one] | 7.45 | 7.69 | 7.42
2 | O=c1[nH]ncn1-c1cccc(-c2cnc3[nH]cc(C4CC4)c3c2Cl)c1 [Compound 2, 4-(3-(4-chloro-3-cyclopropyl-1H-pyrrolo[2,3-b]pyridin-5-yl)phenyl)-2,4-dihydro-3H-1,2,4-triazol-3-one] | 7.27 | 7.74 | 7.63
3 | CCc1c[nH]c2ncc(-c3cccc(N4CCNC4=O)c3)c(Cl)c12 [Compound 3] | 7.88 | 7.59 | 7.65
4 | O=C1NCCN1c1cccc(-c2cnc3[nH]cc(C4CC4)c3c2Cl)c1 [Compound 4] | 7.64 | 7.56 | 7.84
5 | O=C1NCCCN1c1nc(-c2cnc3[nH]cc(C4CC4)c3c2Cl)cs1 [Compound 5] | 8.51 | 7.72 | 8.66
6 | O=C1NCCN1c1cccc(-c2cnc3[nH]cc(C4CC4)c3c2Cl)n1 [Compound 6, 1-(6-(4-chloro-3-cyclopropyl-1H-pyrrolo[2,3-b]pyridin-5-yl)pyridin-2-yl) imidazolidin-2-one] | 8.02 | 7.84 | 8.21
7 | Cc1sc(N2CCCNC2=O)nc1-c1cnc2[nH]cc(C3CC3)c2c1Cl [Compound 7, 1-(4-(4-chloro-3-cyclopropyl-1H-pyrrolo[2,3-b]pyridin-5-yl)-5-methylthiazol-2-yl)tetrahydropyrimidin-2(1H)-one] | 7.03 | 6.90 | 8.38
8 | O=C1NCCCN1c1cccc(-c2cnc3[nH]cc(C4CC4)c3c2Cl)n1 [Compound 8, 1-(6-(4-chloro-3-cyclopropyl-1H-pyrrolo[2,3-b]pyridin-5-yl)pyridin-2-yl)tetrahydropyrimidin-2(1H)-one] | 8.11 | 8.62 | 8.22
9 | CCc1c[nH]c2ncc(-c3cccc(N4CCCNC4=O)c3)c(Cl)c12 [Compound 9] | 6.76 | 8.70 | 9.10
10 | O=C1NC2(CCNC2)C(=O)N1c1cccc(-c2cnc3[nH]cc(C4CC4)c3c2Cl)c1 (stereo not drawn) [Compound 10, 3-(3-(4-chloro-3-cyclopropyl-1H-pyrrolo[2,3-b]pyridin-5-yl)phenyl)-1,3,7-triazaspiro[4.4]nonane-2,4-dione] | 7.56 | 7.84 | 7.94
11 | O=C1NC2(CCNC2)CN1c1cccc(-c2cnc3[nH]cc(C4CC4)c3c2Cl)c1 (stereo not drawn) [Compound 11, 3-(3-(4-chloro-3-cyclopropyl-1H-pyrrolo[2,3-b]pyridin-5-yl)phenyl)-1,3,7-triazaspiro[4.4]nonan-2-one] | 7.46 | 7.80 | 7.65
12 | CCN(C)C(=O)c1c[nH]c2ncc(-c3cccc(N4CCCNC4=O)c3)c(Cl)c12 [Compound 12, 4-Chloro-N-ethyl-N-methyl-5-(3-(2-oxotetrahydropyrimidin-1 (2H)-yl)phenyl)-1H-pyrrolo[2,3-b]pyridine-3-carboxamide] | < 6.00 | < 6.00 | < 6.00
13 | N#Cc1cc(-c2cnc3[nH]cc(C4CC4)c3c2Cl)cc(N2CCCNC2=O)c1 [Compound 13, 3-(4-chloro-3-cyclopropyl-1H-pyrrolo[2,3-b]pyridin-5-yl)-5-(2-oxotetrahydropyrimidin-1(2H)-yl)benzonitrile] | 7.10 | 6.08 | 7.03
14 | CS(=O)(=O)c1ccc(-c2cnc3[nH]cc(C4CC4)c3c2Cl)cc1N1CCCNC1=O [Compound 14, 1-(5-(4-chloro-3-cyclopropyl-1H-pyrrolo[2,3-b]pyridin-5-yl)-2-(methylsulfonyl)phenyl)tetrahydropyrimidin-2(1H)-one] | 8.15 | 6.82 | 7.43
